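Method: 48-hour compound exposure of cells in 96-well plates, five concentrations, linear interpolation of endpoints. Here, GI50 denotes the concentration required for 50% inhibition of growth.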 The source made the active and inactive calls. Cut-off read from the data, not from the text of the source: active = GI50 up to about 1.1 µM and inactive = higher.
Legend:
Experiment in all cases: growth of human tumour cells (NCI), 48 h
DMS-273 = tested on: DMS-273
HOP-18 = tested on: HOP-18
KM-20L2 = tested on: KM-20L2
LXFL 529 = tested on: LXFL 529
SNB-78 = tested on: SNB-78
XF498 = tested on: XF498
M19-MEL = tested on: M19-MEL
DMS-114 = tested on: DMS-114
RXF 631 = tested on: RXF 631

CN(C)/C=N\c1nc(=O)n(C2CCC(CO)O2)cc1F (stereo unspecified)
GI50 (DMS-273): > 100 µM (inactive)
GI50 (HOP-18): > 100 µM (inactive)
GI50 (KM-20L2): > 100 µM (inactive)
GI50 (LXFL 529): > 100 µM (inactive)
GI50 (SNB-78): 95.9 µM (inactive)
GI50 (XF498): > 100 µM (inactive)

O=C(/C=C(\O)C(=O)O)/C=C(\O)c1ccccc1
GI50 (DMS-273): > 4.65 µM (inactive)
GI50 (HOP-18): 1 µM (active)
GI50 (KM-20L2): > 4.65 µM (inactive)
GI50 (LXFL 529): > 4.65 µM (inactive)
GI50 (M19-MEL): > 4.65 µM (inactive)
GI50 (SNB-78): > 100 µM (inactive)
GI50 (XF498): > 100 µM (inactive)

CNc1ccc([N+](=O)[O-])c2c(NCCCN(C)C)ccnc12
GI50 (DMS-114): > 100 µM (inactive)
GI50 (DMS-273): > 100 µM (inactive)
GI50 (KM-20L2): > 100 µM (inactive)
GI50 (M19-MEL): > 100 µM (inactive)
GI50 (SNB-78): 7.8 µM (inactive)
GI50 (XF498): > 100 µM (inactive)

COC(=O)C(C(=O)C(=O)Nc1ccc([N+](=O)[O-])cc1)c1nc2cc(C)c(C)cc2nc1O (stereo unspecified)
GI50 (DMS-114): > 100 µM (inactive)
GI50 (HOP-18): > 100 µM (inactive)
GI50 (KM-20L2): > 100 µM (inactive)
GI50 (LXFL 529): > 100 µM (inactive)
GI50 (M19-MEL): > 100 µM (inactive)
GI50 (SNB-78): > 100 µM (inactive)
GI50 (XF498): > 100 µM (inactive)

CC[n+]1c(/C=C/c2ccc(N(CCCl)CCCl)cc2)ccc2cc(NC(=O)/C=C/c3ccccc3)ccc21
GI50 (DMS-114): 0.52 µM (active)
GI50 (HOP-18): 2.62 µM (inactive)
GI50 (KM-20L2): 0.483 µM (active)
GI50 (LXFL 529): 0.357 µM (active)
GI50 (M19-MEL): 0.439 µM (active)
GI50 (SNB-78): 1.51 µM (inactive)
GI50 (XF498): 0.205 µM (active)

c1ccc(C2N3CCCCC3[C@@H]3c4[nH]c5ccccc5c4CCN23)nc1 (stereo partly specified)
GI50 (DMS-114): 27.4 µM (inactive)
GI50 (DMS-273): > 100 µM (inactive)
GI50 (HOP-18): > 100 µM (inactive)
GI50 (KM-20L2): > 100 µM (inactive)
GI50 (LXFL 529): > 100 µM (inactive)
GI50 (M19-MEL): > 100 µM (inactive)
GI50 (RXF 631): > 100 µM (inactive)
GI50 (SNB-78): 49.7 µM (inactive)

CCCCCCCCCC1CC(=O)OC2=C1C(=O)CCC2 (stereo unspecified)
GI50 (DMS-114): > 100 µM (inactive)
GI50 (DMS-273): > 100 µM (inactive)
GI50 (HOP-18): > 100 µM (inactive)
GI50 (KM-20L2): > 100 µM (inactive)
GI50 (LXFL 529): > 100 µM (inactive)
GI50 (M19-MEL): > 100 µM (inactive)
GI50 (RXF 631): > 100 µM (inactive)
GI50 (SNB-78): > 100 µM (inactive)
GI50 (XF498): > 100 µM (inactive)

Cc1nn(C)c(=O)c2nn(-c3ccccc3)c(C)c12
GI50 (DMS-114): > 100 µM (inactive)
GI50 (DMS-273): > 100 µM (inactive)
GI50 (HOP-18): > 100 µM (inactive)
GI50 (KM-20L2): > 100 µM (inactive)
GI50 (LXFL 529): > 100 µM (inactive)
GI50 (M19-MEL): > 100 µM (inactive)
GI50 (SNB-78): > 100 µM (inactive)

Clc1ccc(Cc2nc3ccccc3s2)c(Cl)c1
GI50 (DMS-114): 17 µM (inactive)
GI50 (DMS-273): 18 µM (inactive)
GI50 (HOP-18): 16 µM (inactive)
GI50 (KM-20L2): 25.6 µM (inactive)
GI50 (LXFL 529): 16.8 µM (inactive)
GI50 (M19-MEL): 15.7 µM (inactive)
GI50 (RXF 631): 16.4 µM (inactive)
GI50 (XF498): 13.6 µM (inactive)

O=[N+]([O-])c1cccc(C(O)/C(=N/Nc2ccccc2)C2Nc3ccc([N+](=O)[O-])cc3N=C2O)c1 (stereo unspecified)
GI50 (DMS-114): 24.9 µM (inactive)
GI50 (DMS-273): 36.8 µM (inactive)
GI50 (KM-20L2): 23.1 µM (inactive)
GI50 (LXFL 529): 37.6 µM (inactive)
GI50 (M19-MEL): 45.4 µM (inactive)
GI50 (RXF 631): > 100 µM (inactive)
GI50 (SNB-78): > 100 µM (inactive)
GI50 (XF498): > 100 µM (inactive)

O=C(c1ccccc1)c1ccc2cccc(O)c2n1
GI50 (DMS-114): 10.9 µM (inactive)
GI50 (DMS-273): 28.4 µM (inactive)
GI50 (HOP-18): 36.1 µM (inactive)
GI50 (KM-20L2): 35.6 µM (inactive)
GI50 (M19-MEL): 28.8 µM (inactive)
GI50 (RXF 631): 55.1 µM (inactive)
GI50 (SNB-78): 46.5 µM (inactive)
GI50 (XF498): 29.2 µM (inactive)

[N-]=[N+]=NC1C2CC3C4CC5CC3[C@H](C2)C(C5)C41 (stereo partly specified)
GI50 (DMS-114): > 100 µM (inactive)
GI50 (DMS-273): > 100 µM (inactive)
GI50 (HOP-18): 17.1 µM (inactive)
GI50 (LXFL 529): > 100 µM (inactive)
GI50 (M19-MEL): > 100 µM (inactive)
GI50 (XF498): > 100 µM (inactive)

COc1cc2c(c(OC)c1OC)-c1ccc(OC)c(=O)cc1[C@@H](NC(=O)c1ccccc1)CC2
GI50 (DMS-114): < 0.01 µM (active)
GI50 (DMS-273): < 0.01 µM (active)
GI50 (HOP-18): 97.5 µM (inactive)
GI50 (KM-20L2): < 0.01 µM (active)
GI50 (LXFL 529): < 0.01 µM (active)
GI50 (M19-MEL): < 0.01 µM (active)
GI50 (RXF 631): 0.0115 µM (active)
GI50 (SNB-78): < 0.01 µM (active)
GI50 (XF498): < 0.01 µM (active)

Source: ChEMBL document CHEMBL1201862, “PubChem BioAssay data set” (2004)
